From US20110039721A1, “METHOD FOR PREDICTION ABOUT CARCINOGENICITY OF SUBSTANCE IN RODENT” (Chemicals Evaluation and Research Institute, priority 2007, published 2011)
Where two headings read alike, the source gives them in different places.

Experiments:
[1] = test system: mRNA expressed from the genes (A) to (D) in rat liver; test: Behavior of genes (mRNA expression level, oligo-DNA microarray) in rat liver after 28-day oral administration; format: in vivo; settings: for Behavior of gene caused by administration of chemical substance, Gene No. 4846 / Behavior of gene caused by administration of chemical substance, Gene No. 2026 / Behavior of gene caused by administration of chemical substance, Gene No. 4218 / Behavior of gene caused by administration of chemical substance, Gene No. 6182 / Behavior of gene caused by administration of chemical substance, Gene No. 5600: gene group (A); for Behavior of gene caused by administration of chemical substance, Gene No. 4846: Unigene No. Rn.144554; for Behavior of gene caused by administration of chemical substance, Gene No. 2026 / Behavior of gene caused by administration of chemical substance, Gene No. 4218: Unigene No. Rn.167075; for Behavior of gene caused by administration of chemical substance, Gene No. 6182: Unigene No. Rn.5834; for Behavior of gene caused by administration of chemical substance, Gene No. 5600: Unigene No. Rn.9836; for Behavior of gene caused by administration of chemical substance, Gene No. 1494 / Behavior of gene caused by administration of chemical substance, Gene No. 2045 / Behavior of gene caused by administration of chemical substance, Gene No. 2203: gene group (B); for Behavior of gene caused by administration of chemical substance, Gene No. 1494: Unigene No. Rn.1430; for Behavior of gene caused by administration of chemical substance, Gene No. 2045: Unigene No. Rn.19329; for Behavior of gene caused by administration of chemical substance, Gene No. 2203: Unigene No. Rn.21240; for Behavior of gene caused by administration of chemical substance, Gene No. 533 / Behavior of gene caused by administration of chemical substance, Gene No. 725 / Behavior of gene caused by administration of chemical substance, Gene No. 1163 / Behavior of gene caused by administration of chemical substance, Gene No. 4973 / Behavior of gene caused by administration of chemical substance, Gene No. 4095 / Behavior of gene caused by administration of chemical substance, Gene No. 1334 / Behavior of gene caused by administration of chemical substance, Gene No. 6620 / Behavior of gene caused by administration of chemical substance, Gene No. 6303 / Behavior of gene caused by administration of chemical substance, Gene No. 5878 / Behavior of gene caused by administration of chemical substance, Gene No. 1131 / Behavior of gene caused by administration of chemical substance, Gene No. 1562 / Behavior of gene caused by administration of chemical substance, Gene No. 1741 / Behavior of gene caused by administration of chemical substance, Gene No. 893 / Behavior of gene caused by administration of chemical substance, Gene No. 6026 / Behavior of gene caused by administration of chemical substance, Gene No. 154 / Behavior of gene caused by administration of chemical substance, Gene No. 1993 / Behavior of gene caused by administration of chemical substance, Gene No. 813 / Behavior of gene caused by administration of chemical substance, Gene No. 2494 / Behavior of gene caused by administration of chemical substance, Gene No. 2546 / Behavior of gene caused by administration of chemical substance, Gene No. 3776 / Behavior of gene caused by administration of chemical substance, Gene No. 3929 / Behavior of gene caused by administration of chemical substance, Gene No. 1119 / Behavior of gene caused by administration of chemical substance, Gene No. 6742 / Behavior of gene caused by administration of chemical substance, Gene No. 5634: gene group (C); for Behavior of gene caused by administration of chemical substance, Gene No. 533: Unigene No. Rn.106184; for Behavior of gene caused by administration of chemical substance, Gene No. 725: Unigene No. Rn.108075; for Behavior of gene caused by administration of chemical substance, Gene No. 1163: Unigene No. Rn.11766; for Behavior of gene caused by administration of chemical substance, Gene No. 4973: Unigene No. Rn.118529; for Behavior of gene caused by administration of chemical substance, Gene No. 4095: Unigene No. Rn.119024; for Behavior of gene caused by administration of chemical substance, Gene No. 1334 / Behavior of gene caused by administration of chemical substance, Gene No. 6620: Unigene No. Rn.120914; for Behavior of gene caused by administration of chemical substance, Gene No. 6303: Unigene No. Rn.123063; for Behavior of gene caused by administration of chemical substance, Gene No. 5878: Unigene No. Rn.143213; for Behavior of gene caused by administration of chemical substance, Gene No. 1131: Unigene No. Rn.144946; for Behavior of gene caused by administration of chemical substance, Gene No. 1562: Unigene No. Rn.14744; for Behavior of gene caused by administration of chemical substance, Gene No. 1741: Unigene No. Rn.1647; for Behavior of gene caused by administration of chemical substance, Gene No. 893: Unigene No. Rn.164817; for Behavior of gene caused by administration of chemical substance, Gene No. 6026: Unigene No. Rn.167685; for Behavior of gene caused by administration of chemical substance, Gene No. 154: Unigene No. Rn.185941; for Behavior of gene caused by administration of chemical substance, Gene No. 1993: Unigene No. Rn.18728; for Behavior of gene caused by administration of chemical substance, Gene No. 813: Unigene No. Rn.201760; for Behavior of gene caused by administration of chemical substance, Gene No. 2494: Unigene No. Rn.23969; for Behavior of gene caused by administration of chemical substance, Gene No. 2546: Unigene No. Rn.24561; for Behavior of gene caused by administration of chemical substance, Gene No. 3776: Unigene No. Rn.43232; for Behavior of gene caused by administration of chemical substance, Gene No. 3929: Unigene No. Rn.4620; for Behavior of gene caused by administration of chemical substance, Gene No. 1119: Unigene No. Rn.9757; for Behavior of gene caused by administration of chemical substance, Gene No. 6742: Unigene No. Rn.9779; for Behavior of gene caused by administration of chemical substance, Gene No. 5634: Unigene No. Rn.9862; for Behavior of gene caused by administration of chemical substance, Gene No. 5726: gene group (D), Unigene No. Rn.9939
How it was run: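 Male F344 SPF rats, 5 weeks old, four per group, dosed by oral gavage once daily for 28 days with test chemical or matched-volume solvent. Liver total RNA profiled on oligo-DNA microarray. Change ≥1.5-fold or ≤1/1.5 versus vehicle counted as significant if its direction matched that seen with other carcinogens.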

liver = settings: cited from earlier work
rodent = settings: classification of the substance (C+/C−); cited from earlier work
[2] = classification of the substance (M+/M−); cited from earlier work

Row | SMILES | Behavior of gene caused by administration of chemical substance, Gene No. 4846 [1] | Behavior of gene caused by administration of chemical substance, Gene No. 2026 [1] | Behavior of gene caused by administration of chemical substance, Gene No. 4218 [1] | Behavior of gene caused by administration of chemical substance, Gene No. 6182 [1] | Behavior of gene caused by administration of chemical substance, Gene No. 5600 [1] | Behavior of gene caused by administration of chemical substance, Gene No. 1494 [1] | Behavior of gene caused by administration of chemical substance, Gene No. 2045 [1] | Behavior of gene caused by administration of chemical substance, Gene No. 2203 [1] | Behavior of gene caused by administration of chemical substance, Gene No. 533 [1] | Behavior of gene caused by administration of chemical substance, Gene No. 725 [1] | Behavior of gene caused by administration of chemical substance, Gene No. 1163 [1] | Behavior of gene caused by administration of chemical substance, Gene No. 4973 [1] | Behavior of gene caused by administration of chemical substance, Gene No. 4095 [1] | Behavior of gene caused by administration of chemical substance, Gene No. 1334 [1] | Behavior of gene caused by administration of chemical substance, Gene No. 6620 [1] | Behavior of gene caused by administration of chemical substance, Gene No. 6303 [1] | Behavior of gene caused by administration of chemical substance, Gene No. 5878 [1] | Behavior of gene caused by administration of chemical substance, Gene No. 1131 [1] | Behavior of gene caused by administration of chemical substance, Gene No. 1562 [1] | Behavior of gene caused by administration of chemical substance, Gene No. 1741 [1] | also measured
1 | NC(=O)c1ccccc1C(N)=O [TS073, Phthalamide] | − | − | − | − | − | − | + | − | − | − | − | − | − | − | − | − | − | − | − | − | Behavior of gene caused by administration of chemical substance, Gene No. 893 [1]: −; Behavior of gene caused by administration of chemical substance, Gene No. 6026 [1]: −; Behavior of gene caused by administration of chemical substance, Gene No. 154 [1]: −; Behavior of gene caused by administration of chemical substance, Gene No. 1993 [1]: −; Behavior of gene caused by administration of chemical substance, Gene No. 813 [1]: −; Behavior of gene caused by administration of chemical substance, Gene No. 2494 [1]: −; Behavior of gene caused by administration of chemical substance, Gene No. 2546 [1]: −; Behavior of gene caused by administration of chemical substance, Gene No. 3776 [1]: −; Behavior of gene caused by administration of chemical substance, Gene No. 3929 [1]: −; Behavior of gene caused by administration of chemical substance, Gene No. 1119 [1]: −; Behavior of gene caused by administration of chemical substance, Gene No. 6742 [1]: −; Behavior of gene caused by administration of chemical substance, Gene No. 5634 [1]: −; Behavior of gene caused by administration of chemical substance, Gene No. 5726 [1]: −; Liver carcinogenicity (liver; in vivo): Cr−; Carcinogenicity (rodent): C−; Mutagenicity by Ames test [2]: M−
2 | O=C1CCCCCN1 [TS074, Caprolactam] | − | − | − | + | − | − | + | − | − | + | − | + | + | − | − | − | − | − | − | + | Behavior of gene caused by administration of chemical substance, Gene No. 893 [1]: −; Behavior of gene caused by administration of chemical substance, Gene No. 6026 [1]: −; Behavior of gene caused by administration of chemical substance, Gene No. 154 [1]: −; Behavior of gene caused by administration of chemical substance, Gene No. 1993 [1]: −; Behavior of gene caused by administration of chemical substance, Gene No. 813 [1]: −; Behavior of gene caused by administration of chemical substance, Gene No. 2494 [1]: −; Behavior of gene caused by administration of chemical substance, Gene No. 2546 [1]: −; Behavior of gene caused by administration of chemical substance, Gene No. 3776 [1]: +; Behavior of gene caused by administration of chemical substance, Gene No. 3929 [1]: +; Behavior of gene caused by administration of chemical substance, Gene No. 1119 [1]: −; Behavior of gene caused by administration of chemical substance, Gene No. 6742 [1]: −; Behavior of gene caused by administration of chemical substance, Gene No. 5634 [1]: +; Behavior of gene caused by administration of chemical substance, Gene No. 5726 [1]: −; Liver carcinogenicity (liver; in vivo): Cr−; Carcinogenicity (rodent): C−; Mutagenicity by Ames test [2]: M−
3 | Cc1ccc(N)cc1Cl [TS080, 3-Chloro-p-toluidine] | + | + | + | + | + | + | − | + | + | + | − | + | + | − | − | − | − | − | − | − | Behavior of gene caused by administration of chemical substance, Gene No. 893 [1]: +; Behavior of gene caused by administration of chemical substance, Gene No. 6026 [1]: −; Behavior of gene caused by administration of chemical substance, Gene No. 154 [1]: +; Behavior of gene caused by administration of chemical substance, Gene No. 1993 [1]: −; Behavior of gene caused by administration of chemical substance, Gene No. 813 [1]: +; Behavior of gene caused by administration of chemical substance, Gene No. 2494 [1]: −; Behavior of gene caused by administration of chemical substance, Gene No. 2546 [1]: +; Behavior of gene caused by administration of chemical substance, Gene No. 3776 [1]: −; Behavior of gene caused by administration of chemical substance, Gene No. 3929 [1]: −; Behavior of gene caused by administration of chemical substance, Gene No. 1119 [1]: −; Behavior of gene caused by administration of chemical substance, Gene No. 6742 [1]: −; Behavior of gene caused by administration of chemical substance, Gene No. 5634 [1]: −; Behavior of gene caused by administration of chemical substance, Gene No. 5726 [1]: +; Liver carcinogenicity (liver; classification of the substance (Cr+/Cr−)): Cr−; Carcinogenicity (rodent): C−; Mutagenicity by Ames test [2]: M−
